Assay results as given in ChEMBL document CHEMBL1201862, “PubChem BioAssay data set” (2004).
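Compound exposure: 48 hours, 5 concentrations, 96-well plates. GI50 marks 50% less growth.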 Active and inactive are the calls of the source. Cut-off read from the data, not from the text of the source: active = GI50 up to about 1.1 µM and inactive = higher.

Key:
Assay in all cases: growth of human tumour cells (NCI), 48 h
[1] = tested on: NCI-H226
[2] = tested on: HOP-92
[3] = tested on: NCI-H522
[4] = tested on: RPMI-8226
[5] = tested on: SNB-75
[6] = tested on: A549
[7] = tested on: A498
[8] = tested on: UACC-62
[9] = tested on: SK-MEL-5
[10] = tested on: IGROV-1
[11] = tested on: NCI-H23
[12] = tested on: OVCAR-3
[13] = tested on: SW-620
[14] = tested on: HL-60
[15] = tested on: SF-268
[16] = tested on: HOP-62
[17] = tested on: OVCAR-5
[18] = tested on: KM12
[19] = tested on: MDA-MB-231
[20] = tested on: DU-145

COc1ccc(C2CCC(Cl)(OC)CC2C=O)cc1 (configuration not stated)
GI50 [1]: > 100 µM (inactive)
GI50 [2]: 29.9 µM (inactive)
GI50 [3]: 64.7 µM (inactive)
GI50 [4]: 45.7 µM (inactive)
GI50 [5]: 31.4 µM (inactive)
GI50 [6]: 61.5 µM (inactive)
GI50 [7]: > 100 µM (inactive)
GI50 [8]: 58.7 µM (inactive)
GI50 [9]: 58.7 µM (inactive)
GI50 [10]: > 100 µM (inactive)
GI50 [11]: 34.6 µM (inactive)
GI50 [12]: 94.2 µM (inactive)
GI50 [13]: 54.3 µM (inactive)
GI50 [14]: 69.5 µM (inactive)
GI50 [15]: 21.9 µM (inactive)
GI50 [16]: 94 µM (inactive)
GI50 [17]: > 100 µM (inactive)
GI50 [18]: > 100 µM (inactive)

O=C(NC(CO)CO)c1ccc2cc(C(=O)N3CC(CCl)c4ccc([N+](=O)[O-])cc43)[nH]c2c1 (configuration not stated)
GI50 [1]: > 100 µM (inactive)
GI50 [19]: 66.1 µM (inactive)
GI50 [2]: > 100 µM (inactive)
GI50 [20]: > 100 µM (inactive)
GI50 [5]: > 100 µM (inactive)
GI50 [6]: > 100 µM (inactive)
GI50 [8]: > 100 µM (inactive)
GI50 [9]: > 100 µM (inactive)
GI50 [10]: > 100 µM (inactive)
GI50 [11]: > 100 µM (inactive)
GI50 [12]: > 100 µM (inactive)
GI50 [13]: > 100 µM (inactive)
GI50 [14]: > 100 µM (inactive)
GI50 [15]: > 100 µM (inactive)
GI50 [16]: > 100 µM (inactive)
GI50 [17]: > 100 µM (inactive)
GI50 [18]: > 100 µM (inactive)

CC(C)(C)N/N=N/c1cn(C2OC(CO)C(O)C2O)c(=O)[nH]c1=O (configuration not stated)
GI50 [1]: > 100 µM (inactive)
GI50 [2]: > 100 µM (inactive)
GI50 [3]: > 100 µM (inactive)
GI50 [4]: 20 µM (inactive)
GI50 [5]: > 100 µM (inactive)
GI50 [6]: > 100 µM (inactive)
GI50 [7]: > 100 µM (inactive)
GI50 [8]: > 100 µM (inactive)
GI50 [9]: > 100 µM (inactive)
GI50 [10]: > 100 µM (inactive)
GI50 [11]: > 100 µM (inactive)
GI50 [12]: > 100 µM (inactive)
GI50 [13]: 17.6 µM (inactive)
GI50 [14]: 50.9 µM (inactive)
GI50 [15]: > 100 µM (inactive)
GI50 [16]: > 100 µM (inactive)
GI50 [17]: > 100 µM (inactive)
GI50 [18]: > 100 µM (inactive)

COc1cc(COC(=O)N2CCCCC2C(=O)O)c([N+](=O)[O-])cc1OC (configuration not stated)
GI50 [1]: > 100 µM (inactive)
GI50 [2]: > 100 µM (inactive)
GI50 [4]: > 100 µM (inactive)
GI50 [20]: > 100 µM (inactive)
GI50 [5]: > 100 µM (inactive)
GI50 [6]: > 100 µM (inactive)
GI50 [7]: > 100 µM (inactive)
GI50 [8]: > 100 µM (inactive)
GI50 [9]: > 100 µM (inactive)
GI50 [10]: > 100 µM (inactive)
GI50 [11]: > 100 µM (inactive)
GI50 [12]: > 100 µM (inactive)
GI50 [13]: > 100 µM (inactive)
GI50 [14]: > 100 µM (inactive)
GI50 [15]: > 100 µM (inactive)
GI50 [16]: > 100 µM (inactive)
GI50 [17]: > 100 µM (inactive)
GI50 [18]: > 100 µM (inactive)

O=C1/C(=C/c2ccco2)N=C(c2ccccc2)N1c1cc2cc(Sc3ccccc3)ccc2[nH]1
GI50 [2]: 8.24 µM (inactive)
GI50 [3]: 11.6 µM (inactive)
GI50 [4]: 0.457 µM (active)
GI50 [20]: > 25 µM (inactive)
GI50 [5]: > 25 µM (inactive)
GI50 [6]: > 25 µM (inactive)
GI50 [7]: 17 µM (inactive)
GI50 [8]: 21.8 µM (inactive)
GI50 [10]: > 25 µM (inactive)
GI50 [11]: > 25 µM (inactive)
GI50 [13]: 13.1 µM (inactive)
GI50 [14]: 0.214 µM (active)
GI50 [15]: > 25 µM (inactive)
GI50 [17]: 21.6 µM (inactive)

[O-][S+](Nc1ccccc1)c1ccccc1Oc1ccccc1 (configuration not stated)
GI50 [1]: 30.4 µM (inactive)
GI50 [19]: 36.2 µM (inactive)
GI50 [3]: 25 µM (inactive)
GI50 [4]: 43.3 µM (inactive)
GI50 [20]: > 100 µM (inactive)
GI50 [5]: 28.6 µM (inactive)
GI50 [6]: 27 µM (inactive)
GI50 [9]: 30.5 µM (inactive)
GI50 [10]: 2.62 µM (inactive)
GI50 [11]: 29.8 µM (inactive)
GI50 [12]: 92.9 µM (inactive)
GI50 [13]: > 100 µM (inactive)
GI50 [14]: 25.5 µM (inactive)
GI50 [15]: 16.3 µM (inactive)
GI50 [16]: 32.7 µM (inactive)
GI50 [17]: > 100 µM (inactive)
GI50 [18]: 18.8 µM (inactive)

O=C1C=CC(=CC=C2C=CN(CCCCCCCCCCC(=O)NCCCCCCCCCCCC(=O)O)C=C2)C=C1
GI50 [1]: > 100 µM (inactive)
GI50 [2]: > 100 µM (inactive)
GI50 [3]: > 100 µM (inactive)
GI50 [4]: > 100 µM (inactive)
GI50 [5]: > 100 µM (inactive)
GI50 [6]: > 100 µM (inactive)
GI50 [7]: > 100 µM (inactive)
GI50 [8]: > 100 µM (inactive)
GI50 [9]: > 100 µM (inactive)
GI50 [10]: > 100 µM (inactive)
GI50 [11]: > 100 µM (inactive)
GI50 [12]: > 100 µM (inactive)
GI50 [13]: > 100 µM (inactive)
GI50 [14]: > 100 µM (inactive)
GI50 [15]: > 100 µM (inactive)
GI50 [16]: > 100 µM (inactive)
GI50 [17]: > 100 µM (inactive)
GI50 [18]: > 100 µM (inactive)

COc1cc(CCc2ccc(OC(C)=O)cc2)cc(OC)c1OC
GI50 [1]: > 100 µM (inactive)
GI50 [2]: 49 µM (inactive)
GI50 [3]: 52 µM (inactive)
GI50 [4]: 86.3 µM (inactive)
GI50 [5]: 80.5 µM (inactive)
GI50 [6]: > 100 µM (inactive)
GI50 [7]: > 100 µM (inactive)
GI50 [8]: > 100 µM (inactive)
GI50 [9]: > 100 µM (inactive)
GI50 [10]: > 100 µM (inactive)
GI50 [12]: > 100 µM (inactive)
GI50 [13]: > 100 µM (inactive)
GI50 [14]: > 100 µM (inactive)
GI50 [15]: > 100 µM (inactive)
GI50 [16]: > 100 µM (inactive)
GI50 [17]: 72.4 µM (inactive)
GI50 [18]: > 100 µM (inactive)
